Patent US20220257622A1, “COMPOSITION FOR MAINTAINING LACTOBACILLUS DOMINANCE” (Kimberly-Clark Worldwide, Inc., priority 2015, published 2022)

The compounds below were run on L. crispatus and E. coli (assay: Therapeutic effect protocol: L. crispatus / E. coli co-culture in LAPT-g medium with carbon source). Details: therapeutic agent (carbon source) 1 wt/vol %; co-culture incubated anaerobically at 37° C.; measured 36 hours after inoculation.
Format: cell-based
Method: Colonies of L. crispatus and E. coli were prepared as follows. A colony of L. crispatus was transferred to 7 ml MRS broth and incubated anaerobically (using BD GasPak EZ anaerobe container system with indicator) at 37° C. without shaking for 18-20 hours. A colony of E. coli was transferred to 5m1 TSB broth and incubated aerobically (shaking at 100 rpm) at 37° C. for 18-20 hours.
Colonies were then inoculated as follows. Bacterial cultures were gently vortexed and 1 mL of each culture was transferred to a corresponding 2.0 mL micro-centrifuge tube and then centrifuged for two minutes at 14,500 rpm. The cultural supernatant was removed and the cell pellet was re-suspended in 1 mL of 0.95% (wt/vol %) saline. The re-suspended colony was then centrifuged for two minutes at 14,500 rpms and the supernatant was removed. For L. crispatus, the pellet was re-suspended in 1 mL of 0.95% saline to achieve ˜10^7 -10^8 cfu/mL. For E. coli the pellet was re-suspended in 1 mL of 0.95% saline to achieve ˜10^8-10^9 cfu/mL.
Media were prepared as follows.
All of the ingredients in Table 1 were combined and the pH was adjusted to 6.5. The media were then autoclaved for 20 minutes at 125° C. To evaluate the effect of various saccharides and organic acids (noted as carbon sources below), the following samples were prepared:
Five milliliters (5 mL) of each medium was transferred to a test tube in duplicates for subsequent inoculation. A master mixture of L. crispatus and E. coli, prepared as described above, was prepared in 1,000:1 ratio. Each (5 ml) test tube was inoculated with the master mixture to give 10^5-10^6 total CFU L. crispatus and 100-1,000 total CFU E. coli per tube.
To establish a negative control, one tube was vortexed and 100 μL was removed to determine the initial cell concentrations by serial dilutions and plating (2 plates per dilution). L. crispatus is selected on MRS agar plates incubated anaerobically at 37° C. for two days. E. coli is selected on TSA plates incubated aerobically at 37° C. for one day. The co-cultures were incubated in an anaerobic container with BD GasPaks at 37° C. for 36 hours.
The effect of the carbon source on the ratio of L. crispatus to E. coli was measured 36 hours after inoculation. The co-culture tube was vortexed and 100 μL was removed to determine the final cell concentrations by serial dilutions and plating (2 plates per dilution). L. crispatus is selected on MRS agar plates incubated anaerobically at 37° C. for two days. E. coli is selected on TSA plates incubated aerobically at 37° C. for one day.
The therapeutic effect of the formulation was then measured using the assay described above in the Test Methods section above. The therapeutic effect is summarized below as the ratio of L. crispatus to E. coli.

Row | Compound | L. crispatus/ E. coli ratio
1 | OC[C@H]1O[C@@](CO)(OC[C@@]2(O[C@H]3O[C@H](CO)[C@@H](O)[C@H](O)[C@H]3O)O[C@H](CO)[C@@H](O)[C@@H]2O)[C@@H](O)[C@@H]1O [Sample 1, 1-Kestose] | 640
2 | O=CC[C@H](O)[C@H](O)CO [Sample 2, 2-Deoxy-D-Ribose] | 161
3 | OC[C@H]1O[C@@](CO)(O[C@H]2O[C@H](CO)[C@@H](O[C@H]3O[C@H](CO)[C@@H](O)[C@H](O)[C@H]3O)[C@H](O)[C@H]2O)[C@@H](O)[C@@H]1O [Sample 3, Erlose] | 32.1
4 | OC[C@@H](O)[C@@H](O[C@H]1O[C@H](CO)[C@@H](O)[C@H](O)[C@H]1O)[C@H](O)[C@@H](O)CO [Sample 4, Maltitol] | 202
5 | Maltotriose [Sample 5] | 535
6 | Palatinose [Sample 6] | 600
